In patent US7556795B2, “Radiopharmaceutical formulations” (Bracco Imaging S.p.A., priority 2002, dated 2009):

Assay: Radiochemical purity (RCP) of 99mTc labeled peptide by HPLC
Assay type: physicochemical
Conditions: 99mTc complex, 4 μg ligand, 300 μL EtOH, ~40 mCi 99mTcO4-, average of multiple experiments; for Percent RCP at 6 hours: prepared at room temperature; for Percent RCP at 15 min: room temperature 15 min
Description: To prepare the ^99mTc complex of Compound 1, 300 μL of ethanol, 50 μL of ligand solution (4 μg Compound 1), 200 μL of gentisic acid solution (20 mg), 50 μL of hydroxypropyl-γ-cyclodextrin solution (2.5 mg) 100 μL of stannous gluconate solution (40 μg of SnCl2), and ^99mTcO4^− (˜40 mCi) was added. Water was added to bring the final volume to 1.0 mL, and the reaction was heated at 100° C. for 15-20 min.
The ^99mTc labeled peptide purity was determined by HPLC using a Vydac C18 protein and peptide analytical column, 300 A pore size, 4.6×250 mm column length. The following gradient (flow rate 1 mL/min) was used: Isocratic elution 78% H2O (0.1% TFA)/22% CH3CN (0.1% TFA) for 20 min, gradient from 78% to 40% CH3CN (0.1% TFA) over 5 min, hold at 40% CH3CN (0.1% TFA) for 10 min, ramp from 40% to 78% CH3CN (0.1% TFA) over 5 min.
To prepare the ^99mTc complex, 50 μL of ligand solution (4 μg Compound 1-4), 300 μL of EtOH, 250 μL of gentisic acid solution (20 mg), 50 μL of 1SnCl2: 34 Gluconic acid (40 μg of SnCl2), and ^99mTcO4^− (˜40 mCi, Syncor) was added. Water was added to bring the final volume to 1.0 mL, and the reaction was allowed to stand at room temperature for 15 min. The solutions were then analyzed for RCP as described in Example 2.
To 50 μL of the Compound 1 solution (4 μg) was added ^99mTcO4^− (190 μL, 41.5 mCi), 0.458 mL of H2O, 50 μL of the stannous gluconate solution (40 μg of SnCl2) and 262 μL of gentisic acid solution (20 mg). The reaction was heated at 100° for 5 min. prior to HPLC analysis, which was performed using the following system: Vydac C-18 Protein and Peptide column (4.6×250 mm) eluted with 78% H2O (0.1% TFA)/22% CH3CN (0.1% TFA) for 20′, ramped from 78% to 40% H2O (0.1% TFA) in 5′, held at 40% H2O (0.1% TFA) for 10′, then ramped from 40% to 78% H2O (0.1% TFA) in 5′. Flow rate: 1 mL/min. The resulting RCP was 87.4% initially and 87.1% at 6 hours. The recovery from the vial was 67%.

Structure (SMILES) | Percent RCP at 6 hours | Percent RCP at 15 min
CSCCC(NC(=O)[C@H](CC(C)C)NC(=O)[C@H](Cc1cnc[nH]1)NC(=O)CNC(=O)[C@@H](NC(=O)[C@H](C)NC(=O)[C@H](Cc1c[nH]c2ccccc12)NC(=O)[C@H](CCC(N)=O)NC(=O)CCCCNC(=O)CNC(=O)[C@H](CS)NC(=O)[C@H](CO)NC(=O)CN(C)C)C(C)C)C(N)=O (stereo partly shown) [Compound 1] | 88.1% | –
CSCC[C@H](NC(=O)[C@H](CC(C)C)NC(=O)[C@H](Cc1cnc[nH]1)NC(=O)CNC(=O)[C@@H](NC(=O)[C@H](C)NC(=O)[C@H](Cc1c[nH]c2ccccc12)NC(=O)[C@H](CCC(N)=O)NC(=O)CCCCNC(=O)CNC(=O)[C@H](CS)NC(=O)CNC(=O)CN(C)C)C(C)C)C(N)=O [Compound 2] | 78.7% | 80.8%
CSCC[C@H](NC(=O)[C@H](CC(C)C)NC(=O)[C@H](Cc1cnc[nH]1)NC(=O)CNC(=O)[C@@H](NC(=O)[C@H](C)NC(=O)[C@H](Cc1c[nH]c2ccccc12)NC(=O)[C@H](CCC(N)=O)NC(=O)CCCCNC(=O)CNC(=O)[C@H](CS)NC(=O)[C@H](CO)NC(=O)CN)C(C)C)C(N)=O [Compound 3] | 82.4% | 86.7%
CSCC[C@H](NC(=O)[C@H](CC(C)C)NC(=O)[C@H](Cc1cnc[nH]1)NC(=O)CNC(=O)[C@@H](NC(=O)[C@H](C)NC(=O)[C@H](Cc1c[nH]c2ccccc12)NC(=O)[C@H](CCC(N)=O)NC(=O)CCCCNC(=O)CNC(=O)[C@H](CS)NC(=O)CNC(=O)CN)C(C)C)C(N)=O [Compound 4] | 83.3% | 83.3%
